Results reported in ChEMBL document CHEMBL1909046, “DrugMatrix in vitro pharmacology data”.

Tests used:
[1] = target: cGMP-specific 3',5'-cyclic phosphodiesterase (Homo sapiens, UniProt O76074); experiment: DRUGMATRIX: Phosphodiesterase PDE5 enzyme inhibition (substrate: [3H]cGMP + cGMP); type: tissue-based, Platelet; settings: platelet; Not Active = under 50% inhibition at 10 µM
Cytochrome P450 1A2 = target: T1, Cytochrome P450 1A2 (Homo sapiens, UniProt P05177); settings: bti-tn-5b1-4; also: in other assays of this panel Not Active means under 50% inhibition at 10 µM
T1 sequence (P05177 whole entry): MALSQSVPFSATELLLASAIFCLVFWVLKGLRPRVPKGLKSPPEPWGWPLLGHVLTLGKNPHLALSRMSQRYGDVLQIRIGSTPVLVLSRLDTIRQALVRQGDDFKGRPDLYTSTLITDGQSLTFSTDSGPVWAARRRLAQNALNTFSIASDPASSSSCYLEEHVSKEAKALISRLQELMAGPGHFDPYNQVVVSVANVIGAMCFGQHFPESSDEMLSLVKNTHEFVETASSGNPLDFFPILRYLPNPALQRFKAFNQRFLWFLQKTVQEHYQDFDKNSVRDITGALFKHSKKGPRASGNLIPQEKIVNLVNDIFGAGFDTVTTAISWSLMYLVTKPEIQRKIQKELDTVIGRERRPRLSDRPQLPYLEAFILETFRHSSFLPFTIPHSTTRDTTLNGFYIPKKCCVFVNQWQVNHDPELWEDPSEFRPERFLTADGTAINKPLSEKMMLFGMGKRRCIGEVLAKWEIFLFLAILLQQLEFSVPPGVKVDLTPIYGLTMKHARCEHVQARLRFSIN

Carbonic anhydrase 2 = Carbonic anhydrase 2 (Homo sapiens, UniProt P00918); experiment: DRUGMATRIX: Carbonic Anhydrase II enzyme inhibition (substrate: 4-Nitrophenyl acetate (4-NPA)); type: tissue-based, Erythrocyte; settings: Not Active = under 50% inhibition at 10 µM
Thromboxane-A synthase = target: T2, Thromboxane-A synthase (Homo sapiens, UniProt P24557); experiment: biochemical; type: tissue-based, Platelet; settings: platelet;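 also: enzyme inhibition assay with PGH2 supplied as substrate; in other assays of this panel Not Active means under 50% inhibition at 10 µM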
T2 sequence (P24557 whole entry): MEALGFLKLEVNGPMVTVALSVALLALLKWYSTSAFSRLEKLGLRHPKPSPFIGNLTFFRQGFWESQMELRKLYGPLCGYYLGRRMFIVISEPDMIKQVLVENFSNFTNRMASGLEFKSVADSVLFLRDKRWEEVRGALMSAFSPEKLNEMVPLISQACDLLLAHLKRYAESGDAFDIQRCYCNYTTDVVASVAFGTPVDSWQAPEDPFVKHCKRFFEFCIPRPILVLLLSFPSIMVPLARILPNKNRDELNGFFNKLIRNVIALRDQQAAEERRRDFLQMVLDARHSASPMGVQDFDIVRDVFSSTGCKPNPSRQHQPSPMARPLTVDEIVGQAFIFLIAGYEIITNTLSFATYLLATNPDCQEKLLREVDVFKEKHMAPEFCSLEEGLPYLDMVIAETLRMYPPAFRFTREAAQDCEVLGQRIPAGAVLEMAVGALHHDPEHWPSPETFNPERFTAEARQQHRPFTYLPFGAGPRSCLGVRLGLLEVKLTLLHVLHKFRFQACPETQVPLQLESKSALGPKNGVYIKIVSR

Progesterone receptor = target: T3, Progesterone receptor (Bos taurus, UniProt Q690N0); experiment: DRUGMATRIX: Progesterone radioligand binding (ligand: [3H] R-5020); type: tissue-based, Uterus; settings: Not Active = under 50% inhibition at 10 µM
T3 sequence (Q690N0 whole entry): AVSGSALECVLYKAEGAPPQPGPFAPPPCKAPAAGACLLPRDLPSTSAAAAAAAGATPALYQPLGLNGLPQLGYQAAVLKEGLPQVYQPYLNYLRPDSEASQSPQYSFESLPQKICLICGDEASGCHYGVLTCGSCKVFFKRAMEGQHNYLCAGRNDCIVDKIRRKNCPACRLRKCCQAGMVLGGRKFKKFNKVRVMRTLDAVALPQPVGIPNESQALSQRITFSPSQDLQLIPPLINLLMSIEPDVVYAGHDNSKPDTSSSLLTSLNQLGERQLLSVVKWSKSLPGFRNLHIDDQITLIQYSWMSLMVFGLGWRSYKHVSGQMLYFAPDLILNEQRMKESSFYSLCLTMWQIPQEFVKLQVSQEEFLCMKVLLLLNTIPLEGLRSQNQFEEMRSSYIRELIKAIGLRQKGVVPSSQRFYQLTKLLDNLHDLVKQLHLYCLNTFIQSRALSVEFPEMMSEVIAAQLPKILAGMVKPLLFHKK

[2] = target: T4, C-X-C chemokine receptor type 2 (Homo sapiens, UniProt P25025); type: cell membranes, Membrane; settings: cho-k1; also: in other assays of this panel Not Active means under 50% inhibition at 10 µM
T4 sequence (P25025 whole entry): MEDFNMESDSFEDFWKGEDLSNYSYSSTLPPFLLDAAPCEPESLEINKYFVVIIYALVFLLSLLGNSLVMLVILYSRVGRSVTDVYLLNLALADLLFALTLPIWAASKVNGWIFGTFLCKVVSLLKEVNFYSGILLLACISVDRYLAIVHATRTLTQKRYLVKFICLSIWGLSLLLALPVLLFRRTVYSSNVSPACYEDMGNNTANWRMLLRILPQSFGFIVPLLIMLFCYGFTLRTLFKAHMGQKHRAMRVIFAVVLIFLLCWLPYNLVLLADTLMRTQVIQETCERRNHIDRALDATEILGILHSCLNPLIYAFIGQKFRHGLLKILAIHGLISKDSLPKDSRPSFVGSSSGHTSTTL

Melanocortin receptor 3 = Melanocortin receptor 3 (Homo sapiens, UniProt P41968); type: cell membranes, Membrane; settings: hek293; also: in other assays of this panel Not Active means under 50% inhibition at 10 µM
Chain of Melanocortin receptor 3 (P41968 whole entry): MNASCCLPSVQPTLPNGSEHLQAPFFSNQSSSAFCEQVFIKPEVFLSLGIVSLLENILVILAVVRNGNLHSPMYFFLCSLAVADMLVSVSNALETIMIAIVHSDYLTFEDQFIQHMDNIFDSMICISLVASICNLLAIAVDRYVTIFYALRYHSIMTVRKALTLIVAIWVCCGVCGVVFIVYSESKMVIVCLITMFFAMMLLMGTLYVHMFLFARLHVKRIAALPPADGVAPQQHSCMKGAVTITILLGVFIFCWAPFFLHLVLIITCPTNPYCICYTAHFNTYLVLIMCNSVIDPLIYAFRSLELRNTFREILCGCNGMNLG

Row | Structure (SMILES) | IC50 [1] | IC50 (Cytochrome P450 1A2) | Ki (Cytochrome P450 1A2) | IC50 (Carbonic anhydrase 2; erythrocyte) | IC50 (Thromboxane-A synthase) | IC50 (Progesterone receptor) | IC50 [2] | IC50 (Melanocortin receptor 3) | IC50 (Carbonic anhydrase 2; read-out: IC50)
1 | CCCNC(=O)NS(=O)(=O)c1ccc(Cl)cc1 [CHLORPROPAMIDE] | Not Active | Not Active | Not Active | Not Active | Not Active | Not Active | Not Active | Not Active | 
2 | NS(=O)(=O)c1cc(C2(O)NC(=O)c3ccccc32)ccc1Cl (stereo unspecified) [CHLORTHALIDONE] | Not Active | Not Active | Not Active |  | Not Active | Not Active | Not Active | Not Active | 677 nM
3 | O=C(O)CC(O)(CC(=O)O)C(=O)O [CITRIC ACID] | Not Active | Not Active | Not Active | Not Active | Not Active | Not Active | Not Active | Not Active | 
4 | CC(C)NCC(O)c1ccccc1Cl (stereo unspecified) [CLORPRENALINE] | Not Active | Not Active | Not Active | Not Active | Not Active | Not Active | Not Active | Not Active | 
5 | CN1CCN(C(c2ccccc2)c2ccccc2)CC1 [CYCLIZINE] | Not Active | Not Active | Not Active | Not Active | Not Active | Not Active | Not Active | Not Active | 
6 | CN1C[C@@H]2C[C@H]1CN2c1cc2c(cc1F)c(=O)c(C(=O)O)cn2C1CC1 [DANOFLOXACIN] | Not Active | Not Active | Not Active | Not Active | Not Active | Not Active | Not Active | Not Active | 
7 | COc1cccc2c1C(=O)c1c(O)c3c(c(O)c1C2=O)C[C@@](O)(C(C)=O)C[C@@H]3O[C@H]1C[C@H](N)[C@H](O)[C@H](C)O1 [DAUNORUBICIN] | Not Active | Not Active | Not Active | Not Active | Not Active | Not Active | Not Active | Not Active | 
8 | O=C(O)c1cc(-c2ccc(F)cc2F)ccc1O [DIFLUNISAL] | Not Active | Not Active | Not Active | Not Active | Not Active | Not Active | Not Active | Not Active | 
9 | C[S+](C)[O-] [DIMETHYL SULFOXIDE] | Not Active | Not Active | Not Active | Not Active | Not Active | Not Active | Not Active | Not Active | 
10 | CC1=NN(c2ccccc2)C(=O)C1 [EDARAVONE] | Not Active | Not Active | Not Active | Not Active | Not Active | Not Active | Not Active | Not Active | 
11 | CC(C)C[C@H]1C(=O)N2CCC[C@H]2[C@]2(O)O[C@](NC(=O)[C@@H]3C=C4c5cccc6[nH]cc(c56)C[C@H]4N(C)C3)(C(C)C)C(=O)N12 [ERGOCRYPTINE] | Not Active | Not Active | Not Active | Not Active | Not Active | Not Active | Not Active | Not Active | 
12 | C[C@]12CC[C@@H]3c4ccc(O)cc4CC[C@H]3[C@@H]1C[C@@H](O)[C@@H]2O [ESTRIOL] | Not Active | Not Active | Not Active | Not Active | Not Active | Not Active | Not Active | Not Active | 
